In patent publication US20260232750A1, “COMPOSITION AND METHOD FOR INHIBITING ADVANCED GLYCATION END PRODUCTS” (ACCESS BUSINESS GROUP INTERNATIONAL LLC, priority 2022, published 2026):
“Also recorded” adds a separate entry of the source. Like-named read-outs stand apart in the source and are kept apart here. Blank lines part the entries; values can stand above or below the molecule they belong to.

Tests used:
Assay type in all cases: biochemical
[1] = FRAP total antioxidant capacity assay
Procedure: (§1) Fast colourimetric methods were slightly modified for the in vitro assessment of DPPH· scavenging, ABTS·+ decolourisation capacity, and total antioxidant capacity of FRAP. The stock solutions of derivatisation reagents were diluted as follows before measurement: DPPH was diluted with absolute ethanol until the absorbance was 0.8±0.05 at λ=517 nm. ABTS working solution was prepared with phosphate buffer (0.2 M, pH 7.4) to display absorbance of 0.8±0.05 at λ=729 nm, based on a previous study. The FRAP solution was prepared according to the instructions of the FRAP kit. Absorbances were measured using an automatic microplate reader (Molecular Group Ltd., USA), and all analyses were performed using 96-well plates. All measurements were performed in triplicate, and Trolox was used as a positive control.
For total antioxidant capacity, 180 μl of FRAP solution was mixed with 5 μl of sample solution, and the absorbance was measured after 5 min at […] with PBS as the negative control. FeSO4 solutions (0.15, 0.3, 0.6, 0.9, 1.2, and 1.5 mM) were used for the calibration curve. The FRAP value represents the corresponding concentration of FeSO4 solutions (mM FeSO4). The regression equation from the standard curve was used to calculate the equivalent concentration 1 (EC1) of each sample. EC1 is defined as the concentration of the test sample with an absorbance equivalent to that of 1.0 mmol/L of FeSO4 solution, determined by its calibration curve.

[2] = Online UPLC-PDA-MS-ABTS·+ scavenging (post-column derivatisation); conditions: online profiling of DOF extract
Procedure: Online identification of antioxidant components of DOF extract was performed using a UPLC system (Milford, MA, USA) consisting of a Waters photodiode array detector and a Waters postcolumn derivatisation system supplying fresh ABTS solution (UPLC-PDA-QDa-ABTS). […] The detection wavelengths were set at 280 and 734 nm, and the injection volume of the sample was 10 μl.
To detect radical scavengers, the UPLC system was coupled with a Waters pump, which supplied freshly prepared ABTS·+ solution into a reaction coil (15 m, 0.25 mm ID) with a flow rate of 0.2 ml/min at 37° C. Negative peaks were recorded based on a decrease of absorbance at 729 nm after the reaction of individual compounds with the ABTS·+ radical. For preliminary identification of compounds, a Waters Acquity QDa mass detector in negative ionisation mode was connected in series to PDA with the following parameters: electrospray ion source; cone voltage, 15 V; atomiser, N2; and scanning range, 100-800 m/z.

[3] = target: T1, COX-2 (Homo sapiens, UniProt P35354); test: Anti-COX-2 assay (COX-2 Inhibitor Screening Kit)
T1 construct: purchased Beyotime S0168
T1 sequence (P35354 18-604): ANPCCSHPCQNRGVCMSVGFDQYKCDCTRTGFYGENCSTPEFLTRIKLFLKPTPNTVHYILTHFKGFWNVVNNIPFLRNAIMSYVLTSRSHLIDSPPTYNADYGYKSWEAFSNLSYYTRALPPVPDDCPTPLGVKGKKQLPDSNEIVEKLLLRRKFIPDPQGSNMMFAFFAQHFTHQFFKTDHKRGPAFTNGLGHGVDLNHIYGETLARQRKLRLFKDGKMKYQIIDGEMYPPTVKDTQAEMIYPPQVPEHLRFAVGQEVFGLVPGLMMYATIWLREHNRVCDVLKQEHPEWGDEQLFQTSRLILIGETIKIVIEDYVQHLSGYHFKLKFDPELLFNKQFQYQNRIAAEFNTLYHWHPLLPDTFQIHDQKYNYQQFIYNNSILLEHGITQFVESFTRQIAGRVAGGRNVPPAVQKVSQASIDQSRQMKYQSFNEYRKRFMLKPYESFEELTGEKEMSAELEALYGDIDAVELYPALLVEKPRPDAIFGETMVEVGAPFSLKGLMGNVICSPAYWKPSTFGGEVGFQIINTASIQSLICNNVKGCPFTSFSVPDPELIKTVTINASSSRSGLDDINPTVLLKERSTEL
Procedure: Anti-inflammatory activity was assessed by measuring COX-2 enzymatic inhibition on the basis of a described method by using the COX-2 Inhibitor Screening Kit (Beyotime, No. S0168). Celecoxib, a COX-2 inhibitor, was used as a positive control.

[4] = DPPH· scavenging assay
[5] = ABTS·+ decolourisation assay; conditions: for IC50: read-out: IC50 against the ABTS radical
Procedure: as §1
For ABTS·+ decolourisation capacity, 100 μl of ABTS working solution was mixed with 200 μl of sample solution, and the absorbance was recorded after 10 min at 729 nm. Phosphate buffer (0.2 M, pH 7.4) was used as a negative control.
DPPH· and ABTS·+ radical scavenging activities of the tested sample were both calculated using the following formula: […]
where A control and A sample represent the absorbance of the control and test samples, respectively. The IC50 was calculated graphically from the dose-inhibition curves.

SMILES: O=C(O)CC(=O)OCC1OC(Oc2c(-c3ccc(O)c(O)c3)oc3cc(O)cc(O)c3c2=O)C(O)C(O)C1O (centres unmarked) [Compound 27, Quercetin 3-O-(6″-malonyl-glucoside)]
antioxidant ability by FRAP (in words) [1]: great antioxidant potency | FRAP EC1 ([1]; Table 11, mean ± SD, n = 3): 827 µM | ABTS radical scavenging by size of negative peaks at 734 nm (in words) [2]: strongest ABTS radical scavengers | COX-2 inhibition (in words) [3]: great COX-2 inhibition; also recorded: outstanding COX-2 inhibitory effects | antioxidant ability by DPPH (in words) [4]: great antioxidant potency

SMILES: O=c1cc(-c2ccc(O)cc2)oc2c([C@@H]3O[C@H](CO)[C@@H](O)[C@H](O)[C@H]3O)c(O)c([C@@H]3O[C@H](CO)[C@@H](O)[C@H](O)[C@H]3O)c(O)c12 [Compound 10, Vicenin-2]
ABTS radical scavenging by size of negative peaks at 734 nm (in words) [2]: strongest ABTS radical scavengers | COX-2 inhibition (in words) [3]: no inhibitory effects

ABTS IC50 ([5]; text b269): 27.68 ± 1.04 µg/mL
SMILES: Cc1c(C)c2c(c(C)c1O)CCC(C)(C(=O)O)O2 (centres unmarked) [Trolox, 6-hydroxyl-2,5,7,8-tetra-methylchroman-2-carboxylic acid, reference compound]
FRAP EC1 ([1]; Table 11, mean ± SD, n = 3): 560 µM | FRAP EC1 ([1]; concentration equivalent to 1.0 mmol/L FeSO4, text b269): 55.35 ± 5.22 µg/mL

SMILES: O=c1cc(-c2ccc(O)c(O)c2)oc2c(C3OC(CO)C(O)C(O)C3O)c(O)c(C3OCC(O)C(O)C3O)c(O)c12 [Compound 11, Luteolin-6-C-β-D-xyloside-8-C-β-D-glucoside]
antioxidant ability by FRAP (in words) [1]: great antioxidant potency | FRAP EC1 (mM) ([1]; Table 11, mean ± SD, n = 3): 1,009.1 µM | ABTS radical scavenging by size of negative peaks at 734 nm (in words) [2]: strongest ABTS radical scavengers | COX-2 inhibition (in words) [3]: great COX-2 inhibition; also recorded: outstanding COX-2 inhibitory effects | antioxidant ability by DPPH (in words) [4]: great antioxidant potency

SMILES: O=c1cc(-c2ccc(O)cc2)oc2c([C@@H]3O[C@H](CO)[C@@H](O)[C@H](O)[C@H]3O)c(O)c([C@@H]3OC[C@@H](O)[C@H](O)[C@H]3O)c(O)c12 [Compound 14, Vicenin-1]
IC50 [5]: 96.4 ± 2.11 µM

SMILES: O=c1c(O[C@@H]2O[C@H](CO)[C@@H](O)[C@H](O)[C@H]2O)c(-c2ccc(O)cc2)oc2cc(O)cc(O)c12 [Compound 31, Astragalin]
COX-2 inhibition (in words) [3]: no inhibitory effects

SMILES: O=c1cc(-c2ccc(O)cc2)oc2c([C@@H]3OC[C@@H](O)[C@H](O)[C@H]3O)c(O)c([C@@H]3O[C@H](CO)[C@@H](O)[C@H](O)[C@H]3O)c(O)c12 [Compound 19, Vicenin-3]
COX-2 inhibition (in words) [3]: no inhibitory effects

SMILES: O=c1cc(-c2ccc(O)cc2)oc2c([C@H]3OC[C@H](O)[C@H](O)[C@H]3O)c(O)c([C@@H]3O[C@H](CO)[C@@H](O)[C@H](O)[C@H]3O)c(O)c12 [Compound 21, Neoschaftoside]
antioxidant ability by FRAP (in words) [1]: great antioxidant potency | antioxidant ability by DPPH (in words) [4]: great antioxidant potency

SMILES: O=c1cc(-c2ccc(O)cc2)oc2c([C@@H]3OC[C@@H](O)[C@H](O)[C@H]3O)c(O)c([C@@H]3OC[C@H](O)[C@H](O)[C@H]3O)c(O)c12 [Compound 26, Apigenin-6-C-α-L-arabinoside-8-C-β-D-xyloside]
FRAP EC1 (mM) ([1]; Table 11, mean ± SD, n = 3): >5,000 µM | COX-2 inhibition (in words) [3]: no inhibitory effects

SMILES: O=c1cc(-c2ccc(O)c(O)c2)oc2cc(O)c(C3OC(CO)C(O)C(O)C3O)c(O)c12 [Compound 18, Luteolin-6-C-β-D-glucoside]
antioxidant ability by FRAP (in words) [1]: great antioxidant potency | FRAP EC1 ([1]; Table 11, mean ± SD, n = 3): 507 µM | COX-2 inhibition (in words) [3]: great COX-2 inhibition; also recorded: outstanding COX-2 inhibitory effects | antioxidant ability by DPPH (in words) [4]: great antioxidant potency

SMILES: O=c1cc(-c2ccc(O)cc2)oc2c([C@@H]3OC[C@H](O)[C@H](O)[C@H]3O)c(O)c([C@@H]3O[C@H](CO)[C@@H](O)[C@H](O)[C@H]3O)c(O)c12 [Compound 17, Schaftoside]
COX-2 inhibition (in words) [3]: no inhibitory effects

SMILES: O=C(/C=C/c1ccc(O)c(O)c1)O[C@@H]1O[C@H](CO)[C@@H](O)[C@H](O)[C@H]1O [Compound 5, 1-O-caffeoyl-β-D-glucoside]
ABTS radical scavenging by size of negative peaks at 734 nm (in words) [2]: strongest ABTS radical scavengers

COX-2 inhibition (in words) [3]: no inhibitory effects
SMILES: CC1OC(OCC2OC(Oc3c(-c4ccc(O)cc4)oc4cc(O)cc(O)c4c3=O)C(O)C(O)C2O)C(O)C(O)C1O (centres unmarked) [Compound 28, Kaempferol-3-O-rutinoside]

IC50 [5]: 6.63 ± 0.41 µM
SMILES: O=c1c(OC2OC(CO)C(O)C(O)C2OC2OC(CO)C(O)C(O)C2O)c(-c2ccc(O)c(O)c2)oc2cc(O)cc(O)c12 (centres unmarked) [Compound 16, Quercetin-3-O-sophoroside]
antioxidant ability by FRAP (in words) [1]: great antioxidant potency | FRAP EC1 ([1]; Table 11, mean ± SD, n = 3): 950 µM | ABTS radical scavenging by size of negative peaks at 734 nm (in words) [2]: strongest ABTS radical scavengers | COX-2 inhibition (in words) [3]: great COX-2 inhibition; also recorded: outstanding COX-2 inhibitory effects | antioxidant ability by DPPH (in words) [4]: great antioxidant potency

COX-2 inhibition (in words) ([3]; listed as isoquercitrin): potent COX-2 inhibitory capacity
SMILES: O=c1c(O[C@@H]2O[C@H](CO)[C@@H](O)[C@H](O)[C@H]2O)c(-c2ccc(O)c(O)c2)oc2cc(O)cc(O)c12 [Compound 25, Isoquercitrin]
antioxidant ability by FRAP (in words) [1]: great antioxidant potency | FRAP EC1 ([1]; Table 11, mean ± SD, n = 3): 520 µM | antioxidant ability by FRAP (in words) ([1]; listed as isoquercitrin): selective and significant antioxidant abilities | ABTS radical scavenging by size of negative peaks at 734 nm (in words) [2]: strongest ABTS radical scavengers | COX-2 inhibition (in words) [3]: great COX-2 inhibition; also recorded: outstanding COX-2 inhibitory effects | antioxidant ability by DPPH (in words) [4]: great antioxidant potency | antioxidant ability by DPPH (in words) ([4]; listed as isoquercitrin): selective and significant antioxidant abilities

IC50 [3]: 535 ± 150 µM | IC50 [4]: 2370 µM
SMILES: COc1cc(-c2oc3cc(O)cc(O)c3c(=O)c2O[C@@H]2O[C@H](CO)[C@@H](O)[C@H](O)[C@H]2O)ccc1O [Compound 32, Isorhamnetin-3-O-glucoside]
EC1 of FRAP [1]: 2,757.3±103.8 μM

SMILES: O=c1cc(-c2ccc(O)c(O)c2)oc2c(C3OCC(O)C(O)C3O)c(O)c(C3OC(CO)C(O)C(O)C3O)c(O)c12 [Compound 15, Luteolin-6-C-β-D-glucoside-8-C-β-D-xyloside]
antioxidant ability by FRAP (in words) [1]: great antioxidant potency | FRAP EC1 (mM) ([1]; Table 11, mean ± SD, n = 3): 1,100.3 µM | COX-2 inhibition (in words) [3]: great COX-2 inhibition; also recorded: outstanding COX-2 inhibitory effects | antioxidant ability by DPPH (in words) [4]: great antioxidant potency
